Key:
[1] = tested on: YAP/TAZ responsive reporter; assay: YAP/TAZ responsive luciferase reporter assay; assay type: cell-based, mouse (NIH3T3 cells); conditions: 24 hours; for TGFß-stimulated YAP/TAZ reporter activity: TGFß stimulation
Description: FIGS. 14A-14E. SIK pathway controls YAP/TAZ-dependent myofibroblast activation in kidney Gli1 cells. KGlil cells were treated as indicated for 48 hours followed by (A) immunoblotting and (B) RT-qPCR. (C) KGlil cells were treated±TGFß (5 ng/mL) or verteporfin (1 μM) for 48 hours followed by imnunoblotting. (D) Luciferase assay from cells were transfected with a YAP/TAZ responsive reporter. SIK inhibitor and forskolin both block basal and TGFß-stimulated-YAP/TAZ reporter activity. (E) Top, KGlil cells were treated for 24 hours as indicated followed by immunoblotting. Bottom, kidney lysates from adenine diet CKD mice were analyzed by immunoblotting as indicated.
To assess the signal of YAP/TAZ responsive reporter, the mouse fibroblast cell line NIH3T3 cells were transfected 24 hours after plating at 50,000 cells/ml in a 10 cm dish by using 15 μl Polyjet transfection reagent (SignaGen Laboratories, SL100688) and 5 μg of 8xGTIIC-luciferase construct. 48 hours after, the cells were then trypsinized and plated on a black 96-well plate and treated the next day for 24 hours. The luciferase and renilla signals were read using Renilla Luciferase Assay System kit (Promega, E2810) and EnVision plate reader (PerkinElmer).

human kidney organoids = assay: cisplatin injury of human kidney organoids: immunostaining, organoid size; assay type: cell-based; conditions: intermittent cisplatin, 5 treatments
Description: FIG. 7. SK-124 preserves human kidney organoid integrity in cisplatin injury model. Human kidney organoids derived from H9 embryonic stem cells were treated with intermittent cisplatin (5 separate treatments) based on published protocols along with the indicated agent. Organoids were cryo-sectioned and immuno-stained with the indicated markers. The top panels show low power images and the bottom panels focus on regions of proximal tubule cells. The graph measures the mean diameter of organoids in the control (no cisplatin), cisplatin+DMSO, and cisplatin+SK-124 treatment groups.
BJFF human induced pluripotent stem cells (hPSCs) were maintained on Geltrexcoated (Thermo Fisher Scientific) plates using StemFit Basic04 Complete (Ajinomoto Co. Inc.) as previously reported(25). The cells were passaged weekly using Accutase (STEMCELL Technologies) for dissociation and Y27632 (Tocris) for adhesion. Directed differentiation of hPSCs into kidney organoids has been published elsewhere (29). Briefly, hPSCs were differentiated into metanephric mesenchyme cells on day 8 by a three-step directed differentiation protocol. Metanephric mesenchyme was transferred into suspension culture in 96-well ultralow adhesion plates (Coming) and further differentiated into kidney organoids, as previously reported(25). Quality control measures of SIX2 immunostaining on day 8 of differentiation and CDH1, LTL, PODXL, CD146, MEIS1/2/3, and SYTOX-blue staining on day 21 were performed on all batches of kidney organoids to limit batch-to-batch heterogeneity. Kidney organoids were maintained in 200 μl of basal media consisting of Advanced RPMI (Thermo Fisher Scientific) and GlutaMAX (Thermo Fisher Scientific) in 96-well plates, as previously reported. Media changes were conducted three times weekly with removal of 90 [l and addition of 100 μl of fresh basal media.
For cisplatin induced injury, day 49 organoids were treated with 5 μM cisplatin in basal media after full media change. After 24 hours, full media exchanges were performed. This 24-hour treatment was performed twice a week, on day 52-53, day 56-57, day 59-60, and day 63-64 as well, for a total of five cisplatin treatments. Samples were obtained for RT-qPCR and immunostaining immediately following each 24-hour treatment with cisplatin, and from corresponding controls.
Following the treatment, the organoids were collected and immediately fixed in 4% PFA in PBS for 1 hour at room temperature, submerged in 30% sucrose overnight at 4° C., then embedded in O.C.T. Compound (4585. Fisher HealthCare). Subsequently, […] frozen sections were prepared via cryo-sectioning by a cryostat. After 1 hr blocking at room temperature, the sections were treated overnight at 4° C. with primary antibodies in antibody dilution buffer (ADB) with biotinylated LTL (1:200, B-1325, Vector), rat anti-CDH1 (1:500, ab11512, Abcam), goat anti-PODXL (1:500, AF1658, R&D Systems), as well as the antibody of interest, either mouse anti-p21 (1:200, NBP2-43697, Novus Biologicals), or rabbit anti-γH2AX (1:100, 2577, Cell Signaling) antibodies. For the optimum labeling of LTL by biotin/streptavidin interaction, the Streptavidin/Biotin Blocking Kit (SP-2002, Vector Laboratories) was applied according to the manufacturer's instructions. After washing, the samples were stained for 1 hour at RT with the nuclear dye-SYTOX Blue (1:500. S 11348, Invitrogen) and the corresponding secondary antibodies in ADB such as streptavidin-AF750 (1:500, S21384, Invitrogen), donkey anti-rat IgG-AF594 (1:500, A21209, Invitrogen), donkey anti-goat IgG-AF555 (1:500, A21432, Invitrogen), and donkey anti-rabbit IgG-AF488 (1:500, A21206, Invitrogen) for γH2AX or donkey anti-mouse IgG-AF488 (1:500, A21202, Invitrogen) for p21 antibodies as well as mouse anti-Meisl/⅔ (1:200, sc-101850, SantaCruz) conjugated antibody, and slides were mounted with Vectashield antifade mounting medium (H1000, Vector Laboratories). […]

kidney = conditions: literature (ref. 21); cited from earlier work

| Compound | basal YAP/TAZ reporter activity [1] | TGFß-stimulated YAP/TAZ reporter activity [1] | patterns of cisplatin-induced injury (human kidney organoids) | anti-fibrotic effects in kidney (kidney) |
| --- | --- | --- | --- | --- |
| 2-[2,6-Dimethoxy-4-[7-(1-methylpyrazol-4-yl)imidazo[1,2-a]pyridin-3-yl]phenyl]-5-ethyl-1,3,4-oxadiazole [SK-124] | block | block | – | – |
| C=C[C@@]1(C)CC(=O)[C@]2(O)[C@@]3(C)[C@@H](O)CCC(C)(C)[C@@H]3[C@H](O)[C@H](OC(C)=O)[C@@]2(C)O1 [forskolin, reference compound] | block | block | – | – |
| C=C1/C(=C\C=C2/CCC[C@]3(C)[C@@H]([C@H](C)CCCC(C)(C)O)CC[C@@H]23)C[C@@H](O)C[C@@H]1O [calcitriol, 1,25-dihydroxy-vitamin D, reference compound] | – | – | minimal effects | anti-fibrotic effects in kidney |

From patent publication US20260306463A1, “SIK INHIBITORS TO TREAT CHRONIC KIDNEY DISEASE” (The General Hospital Corporation, priority 2023, published 2026)
